Measured values from US4719217A, “Certain N-azabicycloalkyl-benzamides useful in the treatment of impaired gastro-intestinal motility or emesis” (Beecham Group p.l.c., priority 1985, dated 1988).

Key:
[1] = system: Intraluminal pressure in the Heidenhain pouch; experiment: Intraluminal pressure in the Heidenhain pouch of the dog (increase in amplitude of rhythmical contractions); type: in vivo; details: Canis lupus familiaris, iv, fasted lightly restrained conscious, increase in amplitude of rhythmical contractions for at least 4-5 minutes
Protocol: 2. Intraluminal pressure in the Heidenhain pouch of the dog
Pressure changes were recorded via a saline filled catheter inserted, with airtight closure, into the fistula of a chronic Heidenhain pouch of the previously fasted and lightly restrained conscious dog. The catheter was connected to a physiological pressure transducer and pressure changes recorded on a hot wire pen recorder. Compounds were administered when the motility was in a phase of relatively low activity and the dose range determined which induced an increase in the amplitude of rhythmical contractions for a period of at least 4-5 minutes.

Intragastric pressure = Intragastric pressure in the rat (gastric motility, fasted conscious restrained rats); type: in vivo; details: sc, 40 min, s.c., intragastric pressure waves, 40 minute period following dosing
Protocol: 1. Intragastric pressure in the rat
Intragastric pressure changes were recorded from fasted conscious and restrained rats using a saline filled catheter inserted into the lumen of the stomach via a permanent gastric fistula. The catheter was connected to a physiological pressure transducer and pressure changes recorded on a hot wire pen recorder. An index of activity was obtained by measuring the average height of pressure waves during 10 minute periods. Values for 4 such periods were obtained during assessment of spontaneous activity prior to dosing and for the 40 minute period following dosing with compound or vehicle. The Student's "t" test was applied to the mean values obtained for activity prior to and post treatment. Groups of 10 animals were used for each treatment.

Q: COc1cc(N)c(Cl)cc1C(=O)NC1C2CCC1CN(C)C2 (racemic) [Example E1, (±) (8β)-4-Amino-5-chloro-2-methoxy-N-(3-methyl-3-azabicyclo[3,2,1]octan-8-yl)benzamide] was tested. Which ED50 [1] did it give?
A: 0.05 mg/kg

Q: How did the ED50 (Intragastric pressure) turn out when COc1cc(N)c(Cl)cc1C(=O)NC1C2CCC1CN(C)C2 (racemic) [Example E2, (±) (8α)-4-Amino-5-chloro-2-methoxy-N-(3-methyl-3azabicyclo[3,2,1]octan-8-yl)benzamide] was run?
A: 0.5 mg/kg

Q: CCN1CC2CCC(C1)C2NC(=O)c1cc(Cl)c(N)cc1OC (racemic) [Example E5, (±)(8β)-4-Amino-5-chloro-2-methoxy-N-(3-ethyl-3-azabicyclo[3,2,1]octan-8-yl)benzamide] was tested. Which ED50 [1] did it give?
A: 0.01 mg/kg
